According to patent US20240293367A1, “METHODS OF TREATING DISORDERS WITH A […]” (Cybin IRL Limited, priority 2023, published 2024):
Read-outs that look alike come from different tables or passages of the source.

Test: Phase I/IIa clinical PK of oral psilocin-d10, plasma, noncompartmental analysis (Cohorts 1-6)
Type: in vivo, human
Settings: for AUC(0-t) / AUC(0-inf) / Cmax / half-life / Vd/F / Tmax: human, plasma; for AUC(0-t) / AUC(0-inf) / Cmax / half-life / Vd/F: po; for AUC(0-inf): read-out: AUC0-inf Mean (SD); for half-life: read-out: T1/2 Mean (SD) (converted); for Vd/F: read-out: Vz/F Mean (SD); for Tmax: read-out: Tmax Median
Method: Phase I/IIa, Randomized, Double-Blind, Placebo-Controlled Study which assesses the safety, tolerability, pharmacokinetics, and pharmacodynamics of multiple ascending oral doses of psilocin-d10 in participants with and without MDD (ClinicalTrials.gov Identifier: NCT05385783). All subjects receiving study medication in Cohorts 1-6 received oral psilocin-d10 powder in solution (0.1M citric acid+Tang orange drink, 30 mL dose in a dose cup) and subjects receiving placebo received a similar volume of Tang orange drink without the psilocin-d10 study drug. All subjects receiving study medication in the relative bioavailability (BA) cohort received powder-filled capsules containing psilocin-d10 benzenesulfonate salt by ingestion with approximately 240 mL room temperature water, or oral psilocin-d10 powder in solution (0.1M citric acid+Tang orange drink, 30 mL dose in a dose cup) in a cross-over design. Psilocin-d10 for the powder in solution dosage form was manufactured by Patheon Pharma Services, with an isotopic purity of 79.89%. Psilocin-d10 benzenesulfonate salt for the powder-filled capsule dosage form was manufactured by Patheon Pharma Services, with an isotopic purity of 85.20%.
Cohorts 1, 4, 5, and 6 of the study was comprised of participants with MDD. Cohorts 2, 3, and the relative BA cohort of the study were comprised of normal healthy volunteers (NHV). […] MDD participants had been on a stable dose of antidepressant medication for at least one month prior to screening with an inadequate response to that antidepressant medication as judged by the Investigator, and continued to receive their prescribed antidepressant throughout the course of the study.
Cohort 1. For Cohort 1, 2 sentinel subjects were randomized and dosed, including 1 subject who received a psilocin-d10 1 mg oral dose and 1 subject who received a placebo dose. After the sentinel subjects were dosed, an additional 2 subjects were dosed, including a replacement subject for one of the sentinel subjects who withdrew consent and one additional subject. In total, four Cohort 1 subjects received a first dose of study medication on Day 1, and 3 subjects received a second dose of study medication on Day 22. For the first dose, 2 subjects received an active psilocin-d10 1 mg dose and 2 subjects received placebo. For the second dose, 3 subjects received an active psilocin-d10 1 mg dose.
Cohort 2. For Cohort 2, 4 subjects were randomized and dosed on Day 1 (2 subjects on one day, 2 subjects on the next day), including 3 subjects who received a psilocin-d10 3 mg oral dose and 1 subject who received a placebo dose. These same 4 subjects were again dosed on Day 8 (2 subjects on one day, 2 subjects on the next day), with all 4 subjects receiving a psilocin-d10 8 mg oral dose (note the actual washout was 11 days between doses).
Cohort 3. For Cohort 3 Day 1, 4 subjects were randomized and dosed on Day 1 (2 subjects on one day, 2 subjects on the next day), including 3 subjects who received a psilocin-do 8 mg oral dose and 1 subject who received a placebo dose. […] Another subject was dosed and left the study after the 2-hour PK sampling and has limited PK samples available for analysis from 0 to 2 hours—this subject's PK data has thus been excluded from the analysis presented hereinafter. For Cohort 3 Day 8, 3 subjects were dosed on Day 8 with a psilocin-d10 10 mg dose (2 sentinel subjects were dosed on one day, 1 non-sentinel subject was dosed on the next day).
Cohorts 4 and 5. For Cohorts 4 and 5, 12 participants each (24 participants total) were randomized in a 3:1 ratio to receive 12 mg of psilocin-d10 or matched placebo in a single dosing session on Day 1. Following a 21-day interval, all participants received a dose of 12 mg psilocin-d10 on Day 22 (second dose for participants originally randomized to psilocin-d10, first dose for participants randomized to placebo), and were followed to Day 42.
Cohort 6. […]

[1] = 8 mg, 8 mg oral, Cohorts 2 and 3 NHV, pooled
[2] = 10 mg, 10 mg oral, Cohort 3 NHV, Day 8
[3] = 12 mg, 12 mg oral, Cohort 4 MDD, Day 1 and Day 22
[4] = 12 mg, 12 mg oral, Cohort 5 MDD, Day 1 and Day 22
[5] = 12 mg, 12 mg oral, Cohorts 4 and 5 MDD, Day 1 and Day 22
[6] = 16 mg, 16 mg oral, Cohort 6 MDD, all subjects incl. 3 with emesis

Structure (SMILES): [2H]C([2H])([2H])N(C([2H])([2H])[2H])C([2H])([2H])C([2H])([2H])c1c[nH]c2cccc(O)c12 [psilocin-d10, 3-(2-(bis(methyl-d3)amino)ethyl-1,1,2,2-d4)-1H-indol-4-ol]
- AUC(0-t) (8 mg, 8 mg oral, Cohorts 2 and 3 NHV, pooled, 2 subjects excluded, read-out: AUC0-24 Mean (SD)): 84 ng·h/mL
- AUC(0-inf) [1]: 87.8 ng·h/mL
- AUC(0-t) (8 mg, 8 mg oral, Cohorts 2 and 3 NHV, pooled, read-out: AUClast Mean (SD)): 84 ng·h/mL
- Cmax (8 mg, 8 mg oral, Cohorts 2 and 3 NHV, pooled, read-out: Cmax Median): 17.1 ng/mL
- half-life [1]: 331 min
- Vd/F [1]: 744 L
- AUC(0-t) (10 mg, 10 mg oral, Cohort 3 NHV, Day 8, read-out: AUC0-24 Mean (SD)): 101 ng·h/mL
- AUC(0-inf) [2]: 106 ng·h/mL
- AUC(0-t) (10 mg, 10 mg oral, Cohort 3 NHV, Day 8, read-out: AUClast Mean (SD)): 101 ng·h/mL
- Cmax (10 mg, 10 mg oral, Cohort 3 NHV, Day 8, read-out: Cmax Mean (SD)): 13.4 ng/mL
- Cmax (10 mg, 10 mg oral, Cohort 3 NHV, Day 8, read-out: Cmax Median): 10.9 ng/mL
- half-life [2]: 307 min
- Vd/F [2]: 758 L
- AUC(0-t) (12 mg, 12 mg oral, Cohort 4 MDD, Day 1 and Day 22, read-out: AUC0-24 Mean (SD)): 155 ng·h/mL
- AUC(0-inf) [3]: 165 ng·h/mL
- AUC(0-t) (12 mg, 12 mg oral, Cohort 4 MDD, Day 1 and Day 22, read-out: AUClast Mean (SD)): 154 ng·h/mL
- Cmax (12 mg, 12 mg oral, Cohort 4 MDD, Day 1 and Day 22, read-out: Cmax Mean (SD)): 19.7 ng/mL
- Cmax (12 mg, 12 mg oral, Cohort 4 MDD, Day 1 and Day 22, read-out: Cmax Median): 18.6 ng/mL
- half-life [3]: 337 min
- Vd/F [3]: 668 L
- AUC(0-t) (12 mg, 12 mg oral, Cohort 5 MDD, Day 1 and Day 22, read-out: AUC0-24 Mean (SD)): 137 ng·h/mL
- AUC(0-inf) [4]: 144 ng·h/mL
- AUC(0-t) (12 mg, 12 mg oral, Cohort 5 MDD, Day 1 and Day 22, read-out: AUClast Mean (SD)): 137 ng·h/mL
- Cmax (12 mg, 12 mg oral, Cohort 5 MDD, Day 1 and Day 22, read-out: Cmax Mean (SD)): 16.9 ng/mL
- Cmax (12 mg, 12 mg oral, Cohort 5 MDD, Day 1 and Day 22, read-out: Cmax Median): 14.8 ng/mL
- half-life [4]: 305 min
- Vd/F [4]: 666 L
- AUC(0-t) (12 mg, 12 mg oral, Cohorts 4 and 5 MDD, Day 1 and Day 22, read-out: AUC0-24 Mean (SD)): 146 ng·h/mL
- AUC(0-inf) [5]: 155 ng·h/mL
- AUC(0-t) (12 mg, 12 mg oral, Cohorts 4 and 5 MDD, Day 1 and Day 22, read-out: AUClast Mean (SD)): 145 ng·h/mL
- Cmax (12 mg, 12 mg oral, Cohorts 4 and 5 MDD, Day 1 and Day 22, read-out: Cmax Mean (SD)): 18.2 ng/mL
- Cmax (12 mg, 12 mg oral, Cohorts 4 and 5 MDD, Day 1 and Day 22, read-out: Cmax Median): 16.2 ng/mL
- half-life [5]: 321 min
- Vd/F [5]: ~667 L
- Cmax (16 mg, 16 mg oral, Cohort 6 MDD, Day 1 and Day 22, all subjects incl. 3 with emesis, read-out: Cmax Mean (SD)): 19.8 ng/mL
- AUC(0-t) (16 mg, 16 mg oral, Cohort 6 MDD, all subjects incl. 3 with emesis, read-out: AUC0-24 Mean (SD)): 155 ng·h/mL
- AUC(0-inf) [6]: 161 ng·h/mL
- AUC(0-t) (16 mg, 16 mg oral, Cohort 6 MDD, all subjects incl. 3 with emesis, read-out: AUClast Mean (SD)): 151 ng·h/mL
- Cmax (16 mg, 16 mg oral, Cohort 6 MDD, all subjects incl. 3 with emesis, read-out: Cmax Median): 17.4 ng/mL
- half-life [6]: 334 min
- Vd/F [6]: 986 L
- Tmax (1 mg oral, Cohort 1 MDD, Day 1 and Day 22 pooled): 1 h
- Tmax (3 mg oral, Cohort 2 NHV, Day 1): 2 h
- Tmax (8 mg oral, Cohorts 2 and 3 NHV, pooled): 2 h
- Tmax (10 mg oral, Cohort 3 NHV, Day 8): 1 h
- Tmax (12 mg oral, Cohorts 4 and 5 MDD, Day 1 and Day 22): 1.03 h
- Tmax (16 mg oral, Cohort 6 MDD, all subjects incl. 3 with emesis): 1.03 h
- mean clearance (CL/F), on average (range of means, 1 to 10 mg doses): 85.22 to 104.7 L/h
